From ChEMBL document CHEMBL1201862, “PubChem BioAssay data set” (2004) come the findings set out here.

Test systems include OVCAR-4; HL-60; HOP-92; COLO 205; SK-OV-3; Malme-3M; 786-0; A498; OVCAR-3; SN12C; UO-31; SW-620; SK-MEL-2; KM12; OVCAR-8; UACC-257; SF-295; TK-10; EKVX; NCI-H23.
Experiment in all cases: growth of human tumour cells (NCI), 48 h

Structures are written as SMILES.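 The compound was tested at five concentrations on cells cultured in 96-well plates, with a 48-hour exposure period. GI50 marks 50% less growth.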 The source made the active and inactive calls. No stated cut-off is given here; in the data, active = GI50 up to about 1.1 µM and inactive = higher.

As for `Cc1c(/N=N/c2ccc([N+](=O)[O-])cc2)nc2scc(-c3ccccc3)n12`, the GI50 with OVCAR-4 is > 100 µM (inactive); with HL-60, 13.7 µM (inactive); in the experiment on HOP-92, > 100 µM (inactive); in the experiment on COLO 205 it was > 100 µM (inactive); with SK-OV-3 it was > 100 µM (inactive); with Malme-3M, > 100 µM (inactive). The GI50 in the experiment on 786-0 was > 100 µM (inactive); in the experiment with A498, > 100 µM (inactive); with OVCAR-3, > 100 µM (inactive); in the experiment on SN12C it was > 100 µM (inactive); in the experiment with UO-31, 58.7 µM (inactive); with SW-620, > 80.2 µM (inactive). In addition, the GI50 in the experiment on SK-MEL-2 is > 100 µM (inactive); with KM12 it was 53.5 µM (inactive); with OVCAR-8, 71.6 µM (inactive); in the experiment on UACC-257, > 100 µM (inactive); in the experiment on SF-295, 52.7 µM (inactive); with TK-10 it was > 74.6 µM (inactive). For the same compound, the GI50 was > 100 µM (inactive) with EKVX and 90.8 µM (inactive) with NCI-H23.

On to `O=C1Nc2ccc(S(=O)(=O)O)cc2/C1=C1/Nc2ccc(Br)cc2C1=O`, for which the GI50 in the experiment on OVCAR-4, in the experiment on HL-60, in the experiment on HOP-92, in the experiment with COLO 205, in the experiment with SK-OV-3 and in the experiment with Malme-3M was > 100 µM (inactive) each time. Moreover, the GI50 in the experiment on 786-0, with A498, with OVCAR-3, with SN12C, in the experiment with UO-31 and in the experiment on SW-620 was > 100 µM (inactive) each time. Besides, the GI50 with SK-MEL-2, in the experiment with KM12, in the experiment with OVCAR-8, in the experiment on UACC-257, with SF-295 and in the experiment with TK-10 was > 100 µM (inactive) each time. For the same compound, the GI50 with EKVX and in the experiment with NCI-H23 was > 100 µM (inactive) in each case.

As for `Cc1cn2cc(-c3ccncc3)nc2s1`, the GI50 with OVCAR-4 is > 82 µM (inactive); in the experiment on HL-60, > 19.8 µM (inactive); with HOP-92 it was > 100 µM (inactive); in the experiment with COLO 205, > 71.8 µM (inactive); in the experiment on SK-OV-3 it was > 100 µM (inactive); with Malme-3M it was > 100 µM (inactive). The GI50 with 786-0 is > 100 µM (inactive); in the experiment with A498, > 100 µM (inactive); in the experiment with OVCAR-3, > 100 µM (inactive); with SN12C, > 100 µM (inactive); in the experiment with UO-31, > 100 µM (inactive); in the experiment with SW-620, > 50 µM (inactive). Also, the GI50 in the experiment on SK-MEL-2, in the experiment with KM12, in the experiment on OVCAR-8, with UACC-257, in the experiment on SF-295 and in the experiment on TK-10 was > 100 µM (inactive) in each case. Also, the GI50 in the experiment on EKVX and with NCI-H23 was > 100 µM (inactive) in each case.

Consider `Clc1ccc(C(c2ccccc2Cl)C(Cl)Cl)cc1` (stereo not given) [MITOTANE], for which the GI50 with OVCAR-4 was 16 µM (inactive); in the experiment on HL-60 it was 18.7 µM (inactive); in the experiment with HOP-92, 13 µM (inactive); with COLO 205, 17.3 µM (inactive); in the experiment on SK-OV-3 it was 18.1 µM (inactive); in the experiment with Malme-3M it was 14.1 µM (inactive). Further, the GI50 with 786-0 was 19.2 µM (inactive); in the experiment on A498, 20.2 µM (inactive); in the experiment on OVCAR-3, 15.6 µM (inactive); with SN12C, 16.7 µM (inactive); in the experiment with UO-31 it was 16.9 µM (inactive); in the experiment with SW-620, 18 µM (inactive). In addition, the GI50 with SK-MEL-2 is 18.3 µM (inactive); in the experiment with KM12 it was 16 µM (inactive); in the experiment on OVCAR-8 it was 20.7 µM (inactive); in the experiment on UACC-257 it was 19.4 µM (inactive); in the experiment on SF-295, 16.2 µM (inactive); with TK-10, 20 µM (inactive). Further, the GI50 was 17.3 µM (inactive) with EKVX and 19 µM (inactive) with NCI-H23.

As for `c1cnc2c(c1)Nc1cnncc1S2`, the GI50 with OVCAR-4 is > 100 µM (inactive); in the experiment with HL-60, > 100 µM (inactive); with HOP-92, 86.3 µM (inactive); in the experiment with COLO 205, > 100 µM (inactive); in the experiment with SK-OV-3 it was > 100 µM (inactive); in the experiment on Malme-3M, > 100 µM (inactive). The GI50 with 786-0 is > 100 µM (inactive); in the experiment on A498, > 100 µM (inactive); in the experiment with OVCAR-3, > 100 µM (inactive); with SN12C, > 100 µM (inactive); with UO-31, 84.1 µM (inactive); in the experiment with SW-620, > 100 µM (inactive). Besides, the GI50 in the experiment with SK-MEL-2, in the experiment on KM12, with OVCAR-8, in the experiment with UACC-257, in the experiment on SF-295 and in the experiment on TK-10 was > 100 µM (inactive) in each case. For the same compound, the GI50 in the experiment on EKVX and in the experiment with NCI-H23 was > 100 µM (inactive) in each case.

`c1cc(-c2ccsc2-c2ccsc2)cs1`: the GI50 was > 55.3 µM (inactive) with OVCAR-4; 37.5 µM (inactive) in the experiment with HL-60; > 92.3 µM (inactive) in the experiment with HOP-92; > 87.1 µM (inactive) in the experiment on COLO 205; > 100 µM (inactive) in the experiment with SK-OV-3; 26.9 µM (inactive) in the experiment on Malme-3M. Also, the GI50 with 786-0 is > 93.3 µM (inactive); in the experiment with A498, > 100 µM (inactive); in the experiment with OVCAR-3, 23.8 µM (inactive); in the experiment on SN12C it was > 86.9 µM (inactive); in the experiment with UO-31 it was > 90.6 µM (inactive); in the experiment with SW-620, > 91.8 µM (inactive). In addition, the GI50 was 28.5 µM (inactive) with SK-MEL-2; 37.3 µM (inactive) with KM12; > 100 µM (inactive) in the experiment with OVCAR-8; > 100 µM (inactive) in the experiment on UACC-257; > 81.1 µM (inactive) in the experiment on SF-295; > 100 µM (inactive) in the experiment on TK-10. Moreover, the values for the GI50 in the experiment on EKVX and with NCI-H23 were > 100 µM (inactive) and 46.3 µM (inactive), respectively.

`COC(=O)CC1(O)C(=O)OCc2c1cc1n(c2=O)Cc2c-1nc1ccccc1c2OC` (stereo not given): the GI50 with OVCAR-4 is 4.82 µM (inactive); in the experiment on HL-60, 0.0959 µM (active); in the experiment on HOP-92 it was 12.3 µM (inactive); in the experiment on COLO 205 it was 3.77 µM (inactive); with SK-OV-3, 0.266 µM (active); in the experiment with Malme-3M it was 3.3 µM (inactive). Besides, the GI50 in the experiment with 786-0 is 0.136 µM (active); with A498, 0.724 µM (active); in the experiment with OVCAR-3, 3.86 µM (inactive); with SN12C, 0.097 µM (active); with UO-31, 1.04 µM (active); in the experiment on SW-620 it was 0.515 µM (active). Further, the GI50 with SK-MEL-2 is 16.1 µM (inactive); with KM12 it was 5.27 µM (inactive); in the experiment on OVCAR-8, 0.726 µM (active); in the experiment on UACC-257, 5.38 µM (inactive); in the experiment on SF-295, 0.151 µM (active); in the experiment on TK-10, > 43.6 µM (inactive). The figures for the GI50 with EKVX and in the experiment on NCI-H23 were 11.1 µM (inactive) and 0.188 µM (active), respectively.

With `CC(=O)OC1CCC2(C)C(=CCC3C4CCC5(OC6CC(C)CN(C(C)=O)C6C5C)C(C)=C4C(=O)C32)C1` (stereo not given), the GI50 in the experiment on OVCAR-4 was 15.4 µM (inactive); in the experiment with HL-60, 81.3 µM (inactive); in the experiment with HOP-92, 15 µM (inactive); with COLO 205 it was 14 µM (inactive); with SK-OV-3 it was 26.5 µM (inactive); with Malme-3M, 15.2 µM (inactive). Moreover, the GI50 in the experiment with 786-0 was 28.1 µM (inactive); in the experiment with A498, 15.8 µM (inactive); in the experiment on OVCAR-3, 18.8 µM (inactive); with SN12C it was 21.6 µM (inactive); in the experiment on UO-31, 31.9 µM (inactive); with SW-620, 66.8 µM (inactive). The GI50 with SK-MEL-2 is 17.8 µM (inactive); in the experiment with KM12, 16.7 µM (inactive); with OVCAR-8, 18.5 µM (inactive); in the experiment on UACC-257, 13.6 µM (inactive); in the experiment on SF-295 it was 19.1 µM (inactive); in the experiment on TK-10, 24.3 µM (inactive). For the same compound, the GI50 in the experiment with EKVX is 7.96 µM (inactive); in the experiment on NCI-H23, 15 µM (inactive).

`CCOC(=O)C(Cc1ccc(OC(=O)c2ccc(OC)cc2OC)cc1)NC(=O)C(F)(F)F` (stereo not given): the GI50 in the experiment on OVCAR-4 is 23.5 µM (inactive); with HL-60 it was 21.9 µM (inactive); in the experiment with HOP-92, 23.1 µM (inactive); with COLO 205 it was 18.7 µM (inactive); in the experiment on SK-OV-3, 39 µM (inactive); with Malme-3M, 21.3 µM (inactive). The GI50 in the experiment on 786-0 was 31.9 µM (inactive); in the experiment with A498 it was 15.7 µM (inactive); in the experiment on OVCAR-3 it was 19.5 µM (inactive); in the experiment with SN12C, 40.1 µM (inactive); in the experiment with UO-31 it was 18 µM (inactive); in the experiment with SW-620 it was > 100 µM (inactive). Besides, the GI50 in the experiment on SK-MEL-2 was 24.6 µM (inactive); with KM12 it was 29.4 µM (inactive); with OVCAR-8, 22.8 µM (inactive); in the experiment on UACC-257, 15.3 µM (inactive); with SF-295, 31.7 µM (inactive); in the experiment with TK-10, 22.2 µM (inactive). Moreover, the GI50 with EKVX was 21.4 µM (inactive); in the experiment on NCI-H23 it was 22.1 µM (inactive).

In the case of `CC1c2ccccc2Cn2cc3c(c21)C(=O)c1cccc(OP(=O)(O)OCc2ccccc2)c1C3=O` (stereo not given), the GI50 is > 100 µM (inactive) with OVCAR-4; > 52.5 µM (inactive) with HL-60; > 100 µM (inactive) with HOP-92; > 100 µM (inactive) in the experiment with COLO 205; > 100 µM (inactive) with SK-OV-3; > 100 µM (inactive) with Malme-3M. Also, the GI50 with 786-0 is > 100 µM (inactive); with A498 it was > 100 µM (inactive); in the experiment with OVCAR-3, > 100 µM (inactive); with SN12C it was > 100 µM (inactive); with UO-31, > 78.3 µM (inactive); in the experiment on SW-620, > 100 µM (inactive). Moreover, the GI50 with SK-MEL-2, with KM12, with OVCAR-8, with UACC-257, with SF-295 and in the experiment on TK-10 was > 100 µM (inactive) throughout. Further, the GI50 in the experiment with EKVX was > 66.1 µM (inactive); with NCI-H23, > 100 µM (inactive).
